Laboratory results taken from the supplement of paper PMC11451515.

System: P12-Ichikawa
Experiment: cell viability relative to DMSO control; higher = less cytotoxic
Conditions: 48 h
Procedure, shortened: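 Library compounds in DMSO were pin-dosed into 1536-well plates (5 μl) holding NOMO1 or SEM (500 cells/well) or P12-Ichikawa (1000 cells/well) leukemia cells, across an 11-point threefold series of 47 μM to 0.79 nM. Each cell line had been adapted for at least four passages in each medium. CellTiter-Glo One luminescence was read after 48 h at 37°C. Viability is the per-plate percentage relative to DMSO wells, with cell-free wells as background.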

[1] = HPLM + 10% dialyzed FBS, 0.000781 µM
[2] = HPLM + 10% dialyzed FBS, 0.00234 µM
[3] = HPLM + 10% dialyzed FBS, 0.00702 µM
[4] = HPLM + 10% dialyzed FBS, 0.0211 µM
[5] = HPLM + 10% dialyzed FBS, 0.0632 µM
[6] = HPLM + 10% dialyzed FBS, 0.19 µM
[7] = HPLM + 10% dialyzed FBS, 0.569 µM
[8] = HPLM + 10% dialyzed FBS, 1.71 µM
[9] = HPLM + 10% dialyzed FBS, 5.12 µM
[10] = HPLM + 10% dialyzed FBS, 15.4 µM
[11] = HPLM + 10% dialyzed FBS, 46.1 µM
[12] = RPMI 5 mM glucose + 10% FBS, 0.000781 µM
[13] = RPMI 5 mM glucose + 10% FBS, 0.00234 µM
[14] = RPMI 5 mM glucose + 10% FBS, 0.00702 µM
[15] = RPMI 5 mM glucose + 10% FBS, 0.0211 µM
[16] = RPMI 5 mM glucose + 10% FBS, 0.0632 µM
[17] = RPMI 5 mM glucose + 10% FBS, 0.19 µM
[18] = RPMI 5 mM glucose + 10% FBS, 0.569 µM
[19] = RPMI 5 mM glucose + 10% FBS, 1.71 µM
[20] = RPMI 5 mM glucose + 10% FBS, 5.12 µM
[21] = RPMI 5 mM glucose + 10% FBS, 15.4 µM
[22] = RPMI 5 mM glucose + 10% FBS, 46.1 µM
[23] = RPMI 5 mM glucose + 10% dialyzed FBS, 0.000781 µM
[24] = RPMI 5 mM glucose + 10% dialyzed FBS, 0.00234 µM
[25] = RPMI 5 mM glucose + 10% dialyzed FBS, 0.00702 µM
[26] = RPMI 5 mM glucose + 10% dialyzed FBS, 0.0211 µM
[27] = RPMI 5 mM glucose + 10% dialyzed FBS, 0.0632 µM
[28] = RPMI 5 mM glucose + 10% dialyzed FBS, 0.19 µM
[29] = RPMI 5 mM glucose + 10% dialyzed FBS, 0.569 µM
[30] = RPMI 5 mM glucose + 10% dialyzed FBS, 1.71 µM
[31] = RPMI 5 mM glucose + 10% dialyzed FBS, 5.12 µM
[32] = RPMI 5 mM glucose + 10% dialyzed FBS, 15.4 µM
[33] = RPMI 5 mM glucose + 10% dialyzed FBS, 46.1 µM

Cc1ccc([N+](=O)[O-])cc1[S+](=O)([O-])N(C)/N=C/c1cnc2ccc(Br)cn12
cell viability [1]: 120% | cell viability [2]: 110% | cell viability [3]: 113% | cell viability [4]: 118% | cell viability [5]: 108% | cell viability [6]: 50.1% | cell viability [7]: 20.2% | cell viability [8]: 7.63% | cell viability [9]: 9.25% | cell viability [10]: 9.2% | cell viability [11]: 4.27% | cell viability [12]: 114% | cell viability [13]: 106% | cell viability [14]: 112% | cell viability [15]: 113% | cell viability [16]: 95.6% | cell viability [17]: 40.9% | cell viability [18]: 15.2% | cell viability [19]: 5.49% | cell viability [20]: 6.55% | cell viability [21]: 8.88% | cell viability [22]: 3.76% | cell viability [23]: 119% | cell viability [24]: 122% | cell viability [25]: 111% | cell viability [26]: 115% | cell viability [27]: 91.3% | cell viability [28]: 51% | cell viability [29]: 24.6% | cell viability [30]: 9.55% | cell viability [31]: 10.3% | cell viability [32]: 12.4% | cell viability [33]: 5.41%

O=C(Nc1nnc(-c2ccco2)o1)c1cc(-c2ccccc2)nc2ccccc12
cell viability [1]: 113% | cell viability [2]: 99.3% | cell viability [3]: 103% | cell viability [4]: 116% | cell viability [5]: 113% | cell viability [6]: 110% | cell viability [7]: 116% | cell viability [8]: 109% | cell viability [9]: 44.4% | cell viability [10]: 3.09% | cell viability [11]: 3.16% | cell viability [12]: 104% | cell viability [13]: 105% | cell viability [14]: 115% | cell viability [15]: 110% | cell viability [16]: 116% | cell viability [17]: 113% | cell viability [18]: 118% | cell viability [19]: 119% | cell viability [20]: 117% | cell viability [21]: 97.8% | cell viability [22]: 6.52% | cell viability [23]: 95.7% | cell viability [24]: 99.8% | cell viability [25]: 99.2% | cell viability [26]: 94.2% | cell viability [27]: 108% | cell viability [28]: 105% | cell viability [29]: 100% | cell viability [30]: 105% | cell viability [31]: 102% | cell viability [32]: 93.2% | cell viability [33]: 7.67%

O=C1CCC[C@@H]2[C@H]3CCCN4CCC[C@@H](CN12)[C@@H]34
cell viability [1]: 78.4% | cell viability [2]: 85.5% | cell viability [3]: 83.3% | cell viability [4]: 87.4% | cell viability [5]: 96.1% | cell viability [6]: 92.1% | cell viability [7]: 83.1% | cell viability [8]: 88.2% | cell viability [9]: 92.5% | cell viability [10]: 98.1% | cell viability [11]: 93.4% | cell viability [12]: 83.7% | cell viability [13]: 83.6% | cell viability [14]: 77.8% | cell viability [15]: 87.6% | cell viability [16]: 88.9% | cell viability [17]: 85.7% | cell viability [18]: 76.3% | cell viability [19]: 86% | cell viability [20]: 79.3% | cell viability [21]: 87.6% | cell viability [22]: 75.7% | cell viability [23]: 74.9% | cell viability [24]: 79% | cell viability [25]: 79.7% | cell viability [26]: 81.8% | cell viability [27]: 86.8% | cell viability [28]: 83.7% | cell viability [29]: 80.1% | cell viability [30]: 86.2% | cell viability [31]: 76.9% | cell viability [32]: 84.7% | cell viability [33]: 80.9%
